In article PMC3508689 (Biochemistry, 2011):

Target: T1, human PPM1D catalytic domain (residues 1–420) (Homo sapiens, UniProt O15297)
T1 sequence (O15297 1-420): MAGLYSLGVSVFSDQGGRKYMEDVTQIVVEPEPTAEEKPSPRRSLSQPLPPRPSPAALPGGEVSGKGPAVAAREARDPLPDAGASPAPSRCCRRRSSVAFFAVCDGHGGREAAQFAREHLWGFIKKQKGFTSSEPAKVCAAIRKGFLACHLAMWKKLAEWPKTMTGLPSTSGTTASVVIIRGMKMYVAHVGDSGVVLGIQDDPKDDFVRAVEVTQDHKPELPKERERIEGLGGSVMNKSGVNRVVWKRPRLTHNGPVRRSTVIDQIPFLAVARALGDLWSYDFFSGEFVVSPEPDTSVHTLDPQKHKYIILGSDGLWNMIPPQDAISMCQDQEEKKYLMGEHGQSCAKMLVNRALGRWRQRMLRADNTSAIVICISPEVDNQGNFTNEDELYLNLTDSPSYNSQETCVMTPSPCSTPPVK
Format: biochemical
Conditions: cyclic peptide 25 μM, ATM substrate peptide 30 μM

Row | Substance | inhibitory activity against PPM1D (in words)
1 | cyclo[(D-Asp)-(D-Asp)-(D-pY)-(D-I)-(D-pS)-(D-F)-C]-amide [peptide 47] | no significant inhibitory activity
2 | cyclo(F-F2Pab-I-pY-DDC)-amide [peptide 44] | did not show inhibitory activity
